Measurements reported in ChEMBL document CHEMBL1201862, “PubChem BioAssay data set” (2004).
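A five-concentration, 48-hour dose response in 96-well plates underlies each endpoint, interpolated linearly between surrounding concentrations. Here, GI50 denotes the concentration required for 50% inhibition of growth.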 Active and inactive are the calls of the source. Cut-off read from the data, not from the text of the source: active = GI50 up to about 1.1 µM and inactive = higher.

Legend:
Experiment in all cases: NCI tumour cell line growth inhibition, 48 h
786-0 = test system: 786-0
A549 = test system: A549
CAKI-1 = test system: CAKI-1
CCRF-CEM = test system: CCRF-CEM
COLO 205 = test system: COLO 205
DU-145 = test system: DU-145
EKVX = test system: EKVX
HCC 2998 = test system: HCC 2998
HCT-15 = test system: HCT-15
HL-60 = test system: HL-60
HOP-62 = test system: HOP-62
HT-29 = test system: HT-29
IGROV-1 = test system: IGROV-1
K562 = test system: K562
KM12 = test system: KM12
M14 = test system: M14
MCF7 = test system: MCF7
MDA-MB-231 = test system: MDA-MB-231
MDA-N = test system: MDA-N
MOLT-4 = test system: MOLT-4
Malme-3M = test system: Malme-3M
NCI-H23 = test system: NCI-H23
OVCAR-8 = test system: OVCAR-8
PC-3 = test system: PC-3
RPMI-8226 = test system: RPMI-8226
RXF 393 = test system: RXF 393
SF-268 = test system: SF-268
SF-295 = test system: SF-295
SK-MEL-28 = test system: SK-MEL-28
SK-MEL-5 = test system: SK-MEL-5
SK-OV-3 = test system: SK-OV-3
SN12C = test system: SN12C
SNB-75 = test system: SNB-75
SR = test system: SR
SW-620 = test system: SW-620
T47D = test system: T47D
TK-10 = test system: TK-10
UACC-257 = test system: UACC-257
UACC-62 = test system: UACC-62
A498 = test system: A498
ACHN = test system: ACHN
HCT-116 = test system: HCT-116
HOP-92 = test system: HOP-92
LOX IMVI = test system: LOX IMVI
MDA-MB-435 = test system: MDA-MB-435
OVCAR-3 = test system: OVCAR-3
OVCAR-4 = test system: OVCAR-4
OVCAR-5 = test system: OVCAR-5
SF-539 = test system: SF-539
SK-MEL-2 = test system: SK-MEL-2
SNB-19 = test system: SNB-19
U-251 = test system: U-251
UO-31 = test system: UO-31

Compound	GI50 (786-0)	GI50 (A549)	GI50 (CCRF-CEM)	GI50 (COLO 205)	GI50 (DU-145)	GI50 (EKVX)	GI50 (HCC 2998)	GI50 (HCT-15)	GI50 (HL-60)	GI50 (IGROV-1)	GI50 (K562)	GI50 (KM12)	GI50 (M14)	GI50 (MCF7)	GI50 (MOLT-4)	GI50 (RXF 393)	GI50 (SF-295)	GI50 (SK-MEL-28)	GI50 (SK-MEL-5)	GI50 (SK-OV-3)	further results
CC(C)(C)[Si](C)(C)Oc1cc(CO)cc2c1cc(=N)o[n+]2[O-]	> 10 µM (inactive)	> 10 µM (inactive)	2.84 µM (inactive)	> 10 µM (inactive)	> 10 µM (inactive)	> 10 µM (inactive)	9.35 µM (inactive)	5.61 µM	3.61 µM (inactive)	8.15 µM (inactive)	4.53 µM (inactive)	4.1 µM (inactive)	> 10 µM (inactive)	2.72 µM (inactive)	2.61 µM (inactive)	3.96 µM (inactive)	> 10 µM (inactive)	> 10 µM (inactive)	> 10 µM (inactive)	> 10 µM (inactive)	GI50 (CAKI-1): > 10 µM (inactive); GI50 (HOP-62): > 10 µM (inactive); GI50 (HT-29): 4.18 µM (inactive); GI50 (MDA-MB-231): > 10 µM (inactive); GI50 (MDA-N): > 10 µM (inactive); GI50 (Malme-3M): > 10 µM (inactive); GI50 (NCI-H23): 6.97 µM (inactive); GI50 (OVCAR-8): > 10 µM (inactive); GI50 (PC-3): 4.01 µM (inactive); GI50 (RPMI-8226): 6.22 µM (inactive); GI50 (SF-268): 6.03 µM (inactive); GI50 (SN12C): 5.56 µM (inactive); GI50 (SNB-75): > 10 µM (inactive); GI50 (SR): 2.48 µM (inactive); GI50 (SW-620): > 10 µM (inactive); GI50 (T47D): 4.8 µM (inactive); GI50 (TK-10): > 10 µM (inactive); GI50 (UACC-257): > 10 µM (inactive); GI50 (UACC-62): > 10 µM (inactive)
O=c1c2cc(Br)ccc2ncn1COCc1ccccc1	70.3 µM (inactive)	52.1 µM (inactive)	71 µM (inactive)	93.8 µM (inactive)	> 100 µM (inactive)	88.3 µM (inactive)	> 100 µM (inactive)	64 µM	> 10 µM (inactive)	56.2 µM (inactive)	54.6 µM (inactive)	52.6 µM (inactive)	97.7 µM (inactive)	37.1 µM (inactive)	42.8 µM (inactive)	51.5 µM (inactive)	> 100 µM (inactive)	> 100 µM (inactive)	31 µM (inactive)	> 100 µM (inactive)	GI50 (A498): > 100 µM (inactive); GI50 (ACHN): 23.8 µM (inactive); GI50 (HCT-116): 61.8 µM (inactive); GI50 (HOP-92): > 100 µM (inactive); GI50 (LOX IMVI): 38.7 µM (inactive); GI50 (MDA-MB-435): > 100 µM (inactive); GI50 (OVCAR-3): > 100 µM (inactive); GI50 (OVCAR-4): > 100 µM (inactive); GI50 (OVCAR-5): > 100 µM (inactive); GI50 (SF-539): > 100 µM (inactive); GI50 (SK-MEL-2): > 100 µM (inactive); GI50 (SNB-19): 45.6 µM (inactive); GI50 (SR): 56.5 µM (inactive); GI50 (SW-620): > 100 µM (inactive); GI50 (TK-10): 96.6 µM (inactive); GI50 (U-251): > 100 µM (inactive); GI50 (UACC-257): > 100 µM (inactive); GI50 (UACC-62): 80.5 µM (inactive); GI50 (UO-31): 24.1 µM (inactive)
